Results taken from PubChem BioAssay (NCI).
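48-hour exposure; five concentrations; linearly interpolated endpoints. The concentration for 50% growth inhibition is given as GI50. TGI: total growth inhibition.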

Columns and labels:
Experiment in all cases: NCI anticancer screen, dose series, 48 h
IGROV1 ovarian = test system: IGROV1 ovarian
LOX IMVI melanoma = test system: LOX IMVI melanoma
OVCAR-8 ovarian = test system: OVCAR-8 ovarian
NCI-H460 lung = test system: NCI-H460 lung
CCRF-CEM leukemia = test system: CCRF-CEM leukemia
HCT-116 colon = test system: HCT-116 colon
SW-620 colon = test system: SW-620 colon
HL-60(TB) leukemia = test system: HL-60(TB) leukemia
SK-MEL-5 melanoma = test system: SK-MEL-5 melanoma
MDA-MB-435 = test system: MDA-MB-435

Row | SMILES | TGI (IGROV1 ovarian) | TGI (LOX IMVI melanoma) | TGI (OVCAR-8 ovarian) | TGI (NCI-H460 lung) | TGI (CCRF-CEM leukemia) | TGI (HCT-116 colon) | TGI (SW-620 colon) | TGI (HL-60(TB) leukemia) | TGI (SK-MEL-5 melanoma) | GI50 (SK-MEL-5 melanoma) | GI50 (IGROV1 ovarian) | GI50 (LOX IMVI melanoma) | GI50 (OVCAR-8 ovarian) | GI50 (NCI-H460 lung) | GI50 (CCRF-CEM leukemia) | GI50 (MDA-MB-435) | TGI (MDA-MB-435) | GI50 (SW-620 colon) | GI50 (HL-60(TB) leukemia) | GI50 (HCT-116 colon)
1 | CC(C)CC(=O)NS(=O)(=O)c1ccccc1 | > 100 µM | > 100 µM | > 100 µM | > 100 µM | > 100 µM | > 100 µM | > 100 µM | > 100 µM |  |  |  |  |  |  |  |  |  |  |  | 
2 | c1ccc(C2N3CCCCC3[C@@H]3c4[nH]c5ccccc5c4CCN23)cc1 (some centres undefined) | > 100 µM |  | > 100 µM | > 100 µM | > 100 µM | > 100 µM | > 100 µM | 48.8 µM | > 100 µM |  |  |  |  |  |  |  |  |  |  | 
3 | O=CC1(C2(C=O)c3ccccc3-c3ccccc32)c2ccccc2-c2ccccc21 | 0.924 µM | 3.98 µM | 6.08 µM | 2.85 µM | 11.6 µM |  | 3.53 µM | 3.21 µM | 4.02 µM | 1.95 µM | 0.323 µM | 1.89 µM | 2.2 µM | 1.56 µM | 3.77 µM | 1.92 µM | 4.51 µM | 1.8 µM | 1.75 µM | 
4 | CN(C)CCC1(C2=CCCC2)CC/C(=C\c2ccccc2)C1=O (centres undefined) | 29.8 µM | 31.3 µM | 29.6 µM | 31.3 µM | 50.3 µM | 35.4 µM | 32.2 µM | 29.9 µM | 27.8 µM |  |  |  |  |  |  |  |  |  |  | 
5 | CC1(C)OC(=O)C(=C2CC(c3ccccc3)c3ccccc32)C(=O)O1 (centres undefined) | > 100 µM | > 100 µM | > 100 µM | > 100 µM | > 100 µM | > 100 µM | > 100 µM | > 100 µM | > 100 µM |  |  |  |  |  |  |  |  |  |  | 
6 | Oc1cc2ccccc2cc1-c1n[nH]c(=S)n1-c1ccc(Cl)cc1 | 7.67 µM | 50.2 µM | > 100 µM |  | > 100 µM | > 100 µM | > 100 µM | > 100 µM | 38.2 µM | 14.4 µM | 1.31 µM | 11.2 µM | 38.4 µM |  | 21.9 µM | 4.66 µM | > 100 µM | 23 µM | 19 µM | 19.3 µM
7 | O=c1/c(=C/c2ccc3c(c2)OCO3)sc2nnc(-c3ccco3)n12 | > 100 µM | > 100 µM | > 100 µM | > 100 µM | > 100 µM | > 100 µM | > 100 µM | > 100 µM | > 100 µM |  |  |  |  |  |  |  |  |  |  | 
8 | Cc1cccc(NC(=O)CC#N)c1Cl | > 100 µM | > 100 µM |  |  | > 100 µM | > 100 µM | > 100 µM | > 100 µM |  |  |  |  |  |  |  |  |  |  |  | 
9 | O=C1C(Cl)=C(Nc2cccc(O)c2)C(=O)N1c1cccc(Cl)c1Cl | 23.4 µM | 28.5 µM | 30.4 µM | 51.5 µM | 50.4 µM | 23.2 µM | 34.5 µM |  | 21.7 µM | 7.01 µM | 5.96 µM | 12.5 µM | 15.1 µM | 14.8 µM | 8.38 µM | 17.9 µM | 43.1 µM | 15.2 µM |  | 11.2 µM
10 | COc1ccc(C#CCC(OC2OC(CO)C(O)C(O)C2O)C(O)c2ccc(OC)c(OC)c2)cc1OC (centres undefined) | > 100 µM | 59.1 µM | > 100 µM | > 100 µM | > 100 µM | > 100 µM | > 100 µM | > 100 µM | > 100 µM |  |  |  |  |  |  |  |  |  |  | 
11 | CC(C)Oc1ccc(C(=O)N[C@H](CNC(=O)CN(C)C)Cc2ccc(-c3cn4cccc([C@H](C)O)c4n3)cc2)cc1Cl | 31 µM | 14.5 µM | 26.6 µM | 12.6 µM |  | 14.2 µM | 21.6 µM |  | 2.82 µM | 0.33 µM | 11.1 µM | 0.0736 µM | 0.0674 µM | 0.036 µM |  | 0.0293 µM | 12.8 µM | 0.0613 µM |  | 0.0355 µM
12 | CCC/C(=N\NC(=O)c1cc2ccccc2cc1O)C(CC)C(=O)CCC(=O)N(Cc1ccccc1)Cc1ccccc1 (centres undefined) | > 100 µM | > 100 µM | > 100 µM | > 100 µM | 41.7 µM | > 100 µM | > 100 µM | 40.1 µM | 60.9 µM |  |  |  |  |  |  |  |  |  |  | 
13 | O=C(c1ccc2c3c(ccc(C(=O)C(F)(F)F)c13)CC2)C(F)(F)F | > 100 µM | > 100 µM | > 100 µM | > 100 µM |  | > 100 µM | > 100 µM |  |  |  |  |  |  |  |  |  |  |  |  | 
14 | Cc1cc2c(cc1C)[n+](=O)c(C(=O)/C=C/c1ccccc1Cl)c(C)n2[O-] | 37.9 µM | > 100 µM | 63.8 µM | 63.7 µM | > 100 µM |  | > 100 µM | 99.6 µM | 59.6 µM |  |  |  |  |  |  |  |  |  |  | 
15 | Cc1ccc(C2=C(c3ccccc3)C(O)(c3ccc(C)cc3)C(c3ccccc3)=C2c2ccc(C)cc2)cc1 | > 100 µM | > 100 µM | > 100 µM | > 100 µM | > 100 µM | > 100 µM | > 100 µM | > 100 µM | > 100 µM |  |  |  |  |  |  |  |  |  |  | 
16 | COc1cc(-c2cc(CCC(=O)Nc3ccccc3[N+](=O)[O-])n(-c3ccc([N+](=O)[O-])cc3[N+](=O)[O-])n2)ccc1O | > 100 µM | > 100 µM | > 100 µM | > 100 µM | > 100 µM | > 100 µM | > 100 µM | > 100 µM | > 100 µM | > 100 µM | > 100 µM | > 100 µM | > 100 µM | > 100 µM | > 100 µM |  |  | > 100 µM | > 100 µM | > 100 µM
17 | CCC(/C(=N\Nc1c(Cl)cc(Cl)cc1Cl)c1ccccc1)n1ccnc1C (centres undefined) | 28.8 µM | 26.8 µM | 37.2 µM | 29.4 µM | > 100 µM | 20.8 µM | 35.7 µM | 14.6 µM | 21.2 µM |  |  |  |  |  |  |  |  |  |  | 
18 | O=C1c2ccccc2C(=O)c2c1ccc1c2OCO1 | > 100 µM | > 100 µM | > 100 µM |  |  | > 100 µM | > 100 µM | > 100 µM | > 100 µM |  |  |  |  |  |  |  | > 100 µM |  |  | 
19 | CC1=C(C(=O)Nc2ccccc2C)C(c2ccc(C3C(C(=O)Nc4ccccc4C)=CNC=C3C(=O)Nc3ccccc3C)cc2)C(C(=O)Nc2ccccc2C)=C(C)N1 | 37.1 µM | 21.7 µM | > 74.8 µM | 48 µM | > 29 µM | > 49.7 µM | 32.6 µM | 29.9 µM | 17.8 µM |  |  |  |  |  |  |  |  |  |  | 
